The numbers were not newly measured in US20100227313A1, “Methods and Compositions for Determining Altered Susceptibility of HIV-1 to Protease Inhibitor Treatment” (priority 2007, published 2010), which cites them from elsewhere.

The test system of this series is HIV protease. Particulars: 2006, cited from earlier work.

With `CC(C)CN(C[C@@H](O)[C@H](Cc1ccccc1)NC(=O)O[C@H]1CCOC1)S(=O)(=O)c1ccc(N)cc1` [APV, amprenavir], the “effect of I47A mutation on susceptibility” value (I47A, de Mendoza et al.) is recorded as “reduced susceptibility”. Besides, the “effect of L33F mutation in protease on susceptibility” value (L33F, Kozal et al.) is “correlate with resistance”.
